The values that follow come from PMC9021288 (Nature Communications, 2022).

Data set [1] can be described thus: Human hepatocyte clearance (relay assay). The settings on record: human. The text has this:
(§1) Briefly, cryopreserved human primary hepatocytes were thawed and cultured as described above.

In data set [2] the test system is cryopreserved human primary hepatocytes. The data set can be described thus: Human hepatocyte clearance (relay assay). The settings on record: 10 µM, single replicates.
Description: as §1

In data set [3] the test system is P. falciparum Pf3D7^0087/N9. The data set can be described thus: Single dose in vivo efficacy in humanized NSG mice. The arrangement: species or system Plasmodium falciparum. The protocol: The effect of pantothenamides on P. falciparum Pf3D7^0087/N9 [66] in vivo was assessed in female NSG mice (NODscidIL2Rγ^null) at the Swiss Tropical and Public Health Institute (Basel, Switzerland) as described previously (Supplementary Table 30)[15],[67]. Briefly, humanized mice were engrafted daily with human erythrocyte suspensions from days -11 to day 6. […] On day 4, groups of n = 2 mice were treated with a single dose pantothenamides or chloroquine (50 mg/kg) by oral gavage. […] Serial dilutions were prepared in the same solvent to concentrations 50 times higher than the corresponding CAL and QC concentrations. The concentrations were calculated under consideration of purity and salt factor. The spiking of the CAL and QC sample were performed at room temperature.

For data set [4], the system named is P. falciparum NF54 asexual blood-stage parasites. The data set can be described thus: 72-h asexual blood-stage replication assay (SYBR Green). The settings on record: asexual blood stages NF54 parasites; read-out: IC50. The class given is cell-based, Plasmodium falciparum. Here is the method: Replication assays were performed using a SYBR Green method as described previously. Briefly, asynchronous parasites were diluted to 0.83% parasitemia, 3% hematocrit in 30 µl medium, and added to 30 µl of diluted compounds in medium (0.1% DMSO final concentration) in black 384-wells plates. After a 72-h incubation, 30 µl of SYBR Green diluted in lysis buffer was added according to the manufacturer’s protocol (Life Technologies). Fluorescence intensity was measured on a BioTek Synergy 2 Plate Reader after 1-h incubation and was normalized to a DMSO control (100% growth) and DHA- or epoxomicin-treatment (no growth). […] Parasite survival was assessed by flow cytometry on an Accuri C6 (BD Biosciences) with BD C6 Plus software using SYBR Green and MitoTracker Deep Red FM (Life Technologies) as nuclear stain and vital dye, respectively, and data were analyzed using FlowJo (10.5.0). […] Luminescence was measured after 72 h using the Renilla-Glo(R) Luciferase Assay System (Promega E2750) and the GlomAX® Discover Multimode Microplate Reader (Promega). The luminescence values were normalized to DMSO vehicle (100% growth) and 200 nM chloroquine-treated (no growth) samples as controls.
Dose-response assays were analyzed by a nonlinear regression using a four-parameter model and the least squares method to find the best fit. One-way Analysis of variance (ANOVA) was performed using the Bonferroni’s Multiple Comparison Test. For the majority of experiments, 2-4 biological replicates were performed. Typically, 2 replicates were performed for screening activities, and a minimum of 3 replicates are performed for other experiments unless stated otherwise.

The test system of data set [5] is human G6PD-A-deficient RBCs. The data set can be described thus: Hemolytic toxicity in NSG mice engrafted with G6PD-deficient human RBCs. The settings on record: Primaquine group.
Description: Hemolytic toxicity was determined in female NSG mice (Jackson Laboratories) using erythrocytes from a G6PD-A-deficient blood donor (0.4 u/g hemoglobin).
In another data set the test system is P. falciparum 3D7. The data set can be described thus: Parasite reduction rate (PRR) in vitro killing rate assay. The class given is cell-based, Plasmodium falciparum. Here is the method:
The antimalarial killing rate was determined by GlaxoSmithKline (GSK, Tres Cantos, Madrid, Spain) as described previously. […] The number of viable parasites was determined on day 21 and 28 by counting the wells with parasite growth.

For another data set, the system named is HepG2 cells. The data set can be described thus: HepG2 viability (resazurin). The settings on record: human, 10 µM. The protocol:
Safety studies were performed by commercial services using their standard protocols. […] Genotoxicity was investigated using the Ames test (Bacterial Reverse Mutation Assay) (Covance Laboratories Ltd, North Yorkshire, England). In vitro mammalian cell micronucleus screening assay was studied in human peripheral blood lymphocytes (BioReliance Corporation, Rockville, USA). Cardiotoxicity was determined against the hERG channel in an automated patch clamp assay using the Qpatch or against the hNaV 1.5, hKV 1.5 and hCaV 1.2 using a manual patch-clamp technique (Metrion Biosciences, Cambridge, UK). Cytotoxicity in human and rat primary hepatocytes was assessed using the CellTiter-Blue assay performed by commercial services (KaLy-Cell). The viability of HepG2 cells was monitored through the addition of 1 mM resazurin. Following 6 h incubation, the relative amount of reduced resazurin was detected in a fluorimeter and compared to the assay controls (vehicle: 0.1% DMSO and positive control: 10 µM puromycin).

Structures are written as SMILES. “And” between values parts separate entries of the source, which are not always exact repeats. Identical values can stand only once. Bounds are passed on as bounds.

Turning to `CCOc1ccc2ccc(=O)oc2c1` [7-Ethoxycoumarin], the amount remaining at 0 h, 10 µM is 100% in data set [1] (% Remaining, 10 µM, hepatocyte donor HC02, 0 h, single replicates); 100% in data set [1] (% Remaining, 10 µM, hepatocyte donor HC06, 0 h, single replicates); 100% in data set [1] (% Remaining, 10 µM, hepatocyte donor HC425, 0 h, single replicates); 100% in data set [1] (% Remaining, 10 µM, hepatocyte donor HC1010, 0 h, single replicates). For the same molecule, the fraction remaining at 6 h, 10 µM in data set [1] (% Remaining, 10 µM, hepatocyte donor HC02, 6 h, single replicates) is 2.2%; in data set [1] (% Remaining, 10 µM, hepatocyte donor HC06, 6 h, single replicates), 56.3%; in data set [1] (% Remaining, 10 µM, hepatocyte donor HC425, 6 h, single replicates), 72.1%; in data set [1] (% Remaining, 10 µM, hepatocyte donor HC1010, 6 h, single replicates), 29.5%. Besides, the fraction remaining at 3 h, 10 µM stood at 80.9% in data set [1] (% Remaining, 10 µM, hepatocyte donor HC06, 3 h, single replicates) and 46.7% in data set [1] (% Remaining, 10 µM, hepatocyte donor HC1010, 3 h, single replicates). For the same molecule, the fraction remaining at 24 h, 10 µM in data set [1] (% Remaining, 10 µM, hepatocyte donor HC425, 24 h, single replicates) was determined as 33.1%; in data set [1] (% Remaining, 10 µM, hepatocyte donor HC1010, 24 h, single replicates), 2%. Further, in data set [1] (cryopreserved human primary hepatocytes (relay assay), % Remaining, 10 µM, hepatocyte donor HC425, 48 h, single replicates), the amount remaining at 48 h, 10 µM amounted to 25.4%. The molecule also yielded an amount remaining at 72 h, 10 µM in data set [1] (cryopreserved human primary hepatocytes (relay assay), % Remaining, 10 µM, hepatocyte donor HC425, 72 h, single replicates) of 8.2%. Also, the intrinsic clearance (hepatocyte CLint) in data set [1] (cryopreserved human primary hepatocytes (relay assay), CLint, donor HC02) stood at 21.2 µL/min/1e6 cells; in data set [1] (cryopreserved human primary hepatocytes (relay assay), CLint, donor HC06) it was 3.14 µL/min/1e6 cells; in data set [1] (cryopreserved human primary hepatocytes (relay assay), CLint, donor HC1010), 6.28 µL/min/1e6 cells. In data set [1] (cryopreserved human primary hepatocytes (relay assay), CLint, donor HC425), this molecule had a hepatocyte CLint at 10 µM of 1.19 µL/min/1e6 cells. Besides, the “% Remaining” value came out at 76.9% in data set [2] (hepatocyte donor HC06, 3 h); 57.5% in data set [2] (hepatocyte donor HC06, 6 h); 78.5% in data set [2] (hepatocyte donor HC425, 6 h); 39.0% in data set [2] (hepatocyte donor HC425, 24 h); 22.9% in data set [2] (hepatocyte donor HC425, 48 h); 4.8% in data set [2] (hepatocyte donor HC425, 72 h). Further, the “% Remaining” value in data set [2] (hepatocyte donor HC1010, 3 h) was 50.4%; in data set [2] (hepatocyte donor HC1010, 6 h), 26.9%.
With `CCN(CC)CCCC(C)Nc1ccnc2cc(Cl)ccc12` (stereo not drawn) [CQ, chloroquine, reference compound], the Parasitemia is 0.12 and 0.07 in data set [3] (day 5 post infection, 50 mg/kg p.o. on day 4, per mouse, 50 mg/kg); 0 and 0.01 in data set [3] (day 6 post infection, per mouse); 0 in data set [3] (day 7 post infection, per mouse).
On to `Cc1ccc(C(=O)N[C@@H](C)CNC(=O)[C@H](O)C(C)(C)CO)cc1` [MMV1542100], for which, in data set [4], the IC50 was 85 nM.
The same measure, in the same setting: under `C[C@@H](CNC(=O)[C@H](O)C(C)(C)CNS(C)(=O)=O)NC(=O)CCc1ccccc1F` [MMV1545779] stands more than 1000 nM.
On the same count and under the same terms, under `C[C@@H](CNC(=O)C(=O)C(C)(C)CO)NC(=O)CCc1ccccc1F` [MMV1545786] stands 1000 nM; under `C[C@@H](CNC(=O)[C@H](O)C(C)(C)CO)NC(=O)c1cccc(F)c1F` [MMV1576723], 32.7 nM.
In the case of `C[C@@H](CNC(=O)[C@H](O)C(C)(C)CO)NC(=O)c1cc(F)ccc1F` [MMV1576724], the IC50 in data set [4] came to 7 nM.
The same measure, in the same setting: the result for `C[C@@H](CNC(=O)[C@H](O)C(C)(C)CO)NC(=O)c1ccc(Cl)c(F)c1` [MMV1576725] reads 56 nM; that for `C[C@@H](CNC(=O)[C@H](O)C(C)(C)CO)NC(=O)c1cc(Cl)ccc1F` [MMV1576728], 2.6 nM; that for `C[C@@H](CNC(=O)[C@H](O)C(C)(C)CO)NC(=O)c1ccc(F)c(F)c1` [MMV1576731], 4.6 nM.
Consider `COc1cc(NC(C)CCCN)c2ncccc2c1` (stereo not drawn) [Primaquine], for which, in data set [5] (day 0, individual mice), the “Human RBCs” value is 74.3% and 71.3% and 74.2% and 65%; the Reticulocytes is 0.41% and 0.56% and 0.49% and 0.54%. In data set [5] (day 4, individual mice), the “Human RBCs” value was 54.6% and 45.9% and 58.7% and 49.1%; the Reticulocytes was 5.2% and 2.88% and 7.64% and 5.35%. In data set [5] (day 7, individual mice), the “Human RBCs” value is 13.5% and 5.35% and 9.52% and 4.33%; the Reticulocytes was 4.47% and 5.69% and 5.07% and 8.31%. Besides, in data set [5] (individual mice), the Hematocrit was 31.37% and 28.81% and 29.69% and 29.51%; the Spleen weight is 1.219 % of body weight and 1.099 % of body weight and 1.08 % of body weight and 1.161 % of body weight.
For `CCc1nc(N)nc(N)c1-c1ccc(Cl)cc1` [Pyrimethamine], the “Average (log parasites +1)” value with P. falciparum 3D7 (24 h) is reported as 4.95; with P. falciparum 3D7 (48 h), 1.57; in the data set on P. falciparum 3D7 (72h) it was 0.53; with P. falciparum 3D7 (96h) it was 0.00; with P. falciparum 3D7 (120h), 0.00. Moreover, the “log (parasites +1)” value in the data set on P. falciparum 3D7 (96h) and in the data set on P. falciparum 3D7 (120h) was 0 throughout. In addition, the parasites in the data set on P. falciparum 3D7 (96h) and with P. falciparum 3D7 (120h) was 0 in each case.
For `CCCCNC(=O)NS(=O)(=O)c1ccc(C)cc1` [Tolbutamide], in data set [1] (hepatocytes, % Remaining), the share remaining at 0 h, 10 µM came out at 100% and the fraction remaining at 3 h, 10 µM was 98.8%.
As for `COc1ccc(C[C@H](N)C(=O)N[C@H]2[C@@H](O)[C@H](n3cnc4c(N(C)C)ncnc43)O[C@@H]2CO)cc1` [puromycin], the “HepG2 viability assay, raw signal, MIN average” value with HepG2 cells was determined as 764.

The fraction remaining is what is left of the initial amount, in per cent. By hepatocyte CLint is commonly meant the rate of metabolic loss divided by the concentration. As usually defined, the IC50 is the concentration at which inhibition is half-maximal.
